Data published in US9187458B2, “Cyanoquinoline derivatives” (Tianjin Hemay Bio-Tech Co., LTD., priority 2010, dated 2015).

Legend:
[1] = tested on: SK-OV-3 cells; test: SK-OV-3 Cell Growth Inhibition Test (MTT Assay); type: cell-based; conditions: Homo sapiens, 72 h incubation
In short: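 SK-OV-3 human ovarian cancer cells in McCoy's 5A/10% FBS were seeded at 4000 cells/well, then exposed to compound for 72 h at 37° C, 5% CO2. Viability was read by MTT (0.5 mg/ml, 3 h) and OD at 490 nm. IC50 = concentration giving 50% inhibition from fitted inhibition ratios.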

[2] = tested on: NCI-H460 cells; test: NCI-H460 Cell Growth Inhibition Test (MTT Assay); type: cell-based; conditions: Homo sapiens, 72 h incubation
In short: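 Cells seeded at 2500 per well, left overnight, then exposed to compound for 72 h at 37 °C, 5% CO2. Viability by MTT (0.5 mg/ml, 3 h), DMSO-dissolved, OD 490 nm; inhibition ratio = (PC−n)/(PC−NC)×100%, IC50 from curve fit.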

[3] = biological target: T1, Her2 kinase (Homo sapiens, UniProt P04626); test: Inhibition Activity Assay on Her2 Enzyme (ELISA, PGT substrate); type: biochemical; conditions: 8 min at 4° C., read-out: Inhibition Activity (EC50) on Her-2
T1 construct: purchased Cell Signaling Tech #7382
Protocol: Inhibition Activity Assay on Her2 Enzyme
1. Her2 kinase, Cell Signaling Tech, #7382, Lot. 2, reserved at −80° C.;
2. PBST: PBS+0.05% (v/v) Tween 20;
3. Confining liquid: 3% of BSA in PBS;
4. HEPEs buffer (2×): 50 mM HEPEs, 20 mM MgCl2, 0.1 mM MnCl2, 0.2 mM Na3VO4, adjusted to pH of 7.4 with NaOH;
5. PGT, Sigma, Cat#P0275): 2 mg/ml of stock solution was prepared by dissolving PBS, reserved at −20° C.
6. ATP: […] of stock solution was prepared by dissolving ddH2O, reserved at −20° C.;
7. Mice anti-phosphorylation tyrosine-HRP: Invitrogen-037720, 0.5 mg/ml, reserved at 4° C.;
8. TMB: Cell Signaling Tech, Cat #7004L;
9. DTT: 2.5 M of stock solution was prepared with ddH2O, reserved at −20° C. Before use, 2×HEPEs buffer was added in the solution to the final concentration of 1.25 mM.
1. 2 mg/ml of PGT was diluted with PBS to 0.2 mg/ml. 60 μl of the resulting solution was added in each well. The elisa plate was placed in a refrigerator at 4° C. and coated overnight;
2. The coating solution was discarded to stop the coating. The plate was washed four times with PBS, and then beaten to dryness;
3. The elisa plate was placed in a refrigerator at 4° C., drained out and stood for 3h.
4. […] of aqueous solution of each compound was diluted with ddH2O to a desirable concentration. Then, the solution was added in the corresponding elisa well by 25 μl/well;
5. 2 nM of ATP solution was diluted with ddH2O to 25 folds and then sufficiently mixed. The resulting solution was separately added in each elisa well by 25 μl per well (25 μl ddH2O was added in the negative control);
6. Her2 kinase was diluted with 2×TKB to 800 folds. The resulting solution was added in the elisa well by 50 μl per well. Then, the enzyme reaction began. Moreover, the elisa plate was immediately placed in a micro-oscillator. The reaction is carried out for 8 min at the temperature of 4° C.;
7. 2% of SDS was added in the elisa well to stop the reaction by adding 100 μl of SDS in each well. The solution was sufficiently mixed on the micro-oscillator to sufficiently mix for about 5 min;
8. The reaction solution was sucked out. The plate was washed four times with PBST. After the plate was beaten to dryness, 0.25 μg/ml of mice anti-phosphorylation tyrosine-HRP which was diluted with confining liquid was added in the plate by 100 μl per well, and then reacted for 30 min at the room temperature.
9. The antibody reaction solution was sucked out. The plate was washed six times with PBST. After the plate was beaten to dryness, TMB peroxidase substrate was added in the plate with 100 μl/well, and then reacted in the dark for 15 min at the room temperature;
10. 100 μl of 2N H2SO4 was added in the solution to stop the chromogenic reaction. After the bubbles were cleansed, the solution was measured in elisa at 450 nm.
OD values were converted in relative inhibition ratios according to following formula: Relative inhibition ratio=[1−(experiment values−NC mean values)/(PC mean values−NC mean values)]×100%

T1 sequence (P04626 676-1255 limits assumed): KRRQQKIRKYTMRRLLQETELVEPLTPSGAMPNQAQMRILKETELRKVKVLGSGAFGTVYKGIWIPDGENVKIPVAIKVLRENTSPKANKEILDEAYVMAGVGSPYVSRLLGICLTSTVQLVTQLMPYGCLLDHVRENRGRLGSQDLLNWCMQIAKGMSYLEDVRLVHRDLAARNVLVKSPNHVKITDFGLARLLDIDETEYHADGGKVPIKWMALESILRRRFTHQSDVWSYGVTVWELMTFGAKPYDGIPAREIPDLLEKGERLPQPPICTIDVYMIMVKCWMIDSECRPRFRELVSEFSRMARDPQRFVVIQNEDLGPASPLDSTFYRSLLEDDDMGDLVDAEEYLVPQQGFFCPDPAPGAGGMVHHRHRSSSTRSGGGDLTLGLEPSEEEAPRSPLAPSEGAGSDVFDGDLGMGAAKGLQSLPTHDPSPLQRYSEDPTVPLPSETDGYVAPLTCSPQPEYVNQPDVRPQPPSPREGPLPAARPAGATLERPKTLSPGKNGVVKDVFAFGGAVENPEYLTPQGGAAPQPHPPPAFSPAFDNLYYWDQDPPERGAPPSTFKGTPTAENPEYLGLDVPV

CN(C)C/C=C/C(=O)Nc1cc2c(Nc3ccc(F)c(Cl)c3)c(C#N)cnc2cc1OC1CCOC1 (stereo not drawn) [Example 4, (E)-N-(4-(3-CHLORO-4-FLUOROPHENYLAMINO)-3-CYANO-7-(TETRAHYDROFURAN-3-YL-OXY)QUINOLIN-6-YL)-4-(DIMETHYLAMINO)-BUT-2-ENAMIDE]
IC50 [1]: 409 nM
IC50 [2]: 1600 nM
EC50 [3]: 161 nM
